One may read the pIC50 as the negative decadic logarithm of the IC50, by convention in mol/L.

pIC50: −log10 of the molar value.

Common to all, as to format: biochemical
In one assay the target is SIK1 (Homo sapiens, UniProt P57059). Briefly: Enzymatic activity assay SIK1, RapidFire mass spectrometry (phosphorylation of CHK-peptide). The note with it: RapidFire MS, inhibition of SIK1; read-out: SIK1 RF IC50. The procedure, abridged:
(§1)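 Compounds (12-point, 3-fold, generally 30 μM to 170 pM) were pre-incubated 30 min at ambient temperature with SIK1 (5 nM), SIK2 (0.5 nM) or SIK3 (1.5 nM) in HEPES pH 7.0/magnesium acetate buffer. CHK-peptide (10 μM solution) and ATP (100 μM solution) were then added for 45 min before formic acid quench.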

The next assay concerns the target SIK2 (Homo sapiens, UniProt Q9H0K1). Briefly: Enzymatic activity assay SIK2, RapidFire mass spectrometry (phosphorylation of CHK-peptide). The note with it: RapidFire MS, inhibition of SIK2; read-out: SIK2 RF IC50. In a few lines:
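SIK2 (0.5 nM) in pH 7.0 HEPES buffer with 10 mM Mg acetate phosphorylates CHK-peptide (10 μM solution) with 100 μM ATP solution, 45 min ambient, then formic acid quench.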

The target in the next assay is SIK3 (Homo sapiens, UniProt Q9Y2K2). Briefly: Enzymatic activity assay SIK3, RapidFire mass spectrometry (phosphorylation of CHK-peptide). Particulars: RapidFire MS, inhibition of SIK3; read-out: SIK3 RF IC50. In a few lines:
as §1

Chain of SIK1 (P57059 whole entry): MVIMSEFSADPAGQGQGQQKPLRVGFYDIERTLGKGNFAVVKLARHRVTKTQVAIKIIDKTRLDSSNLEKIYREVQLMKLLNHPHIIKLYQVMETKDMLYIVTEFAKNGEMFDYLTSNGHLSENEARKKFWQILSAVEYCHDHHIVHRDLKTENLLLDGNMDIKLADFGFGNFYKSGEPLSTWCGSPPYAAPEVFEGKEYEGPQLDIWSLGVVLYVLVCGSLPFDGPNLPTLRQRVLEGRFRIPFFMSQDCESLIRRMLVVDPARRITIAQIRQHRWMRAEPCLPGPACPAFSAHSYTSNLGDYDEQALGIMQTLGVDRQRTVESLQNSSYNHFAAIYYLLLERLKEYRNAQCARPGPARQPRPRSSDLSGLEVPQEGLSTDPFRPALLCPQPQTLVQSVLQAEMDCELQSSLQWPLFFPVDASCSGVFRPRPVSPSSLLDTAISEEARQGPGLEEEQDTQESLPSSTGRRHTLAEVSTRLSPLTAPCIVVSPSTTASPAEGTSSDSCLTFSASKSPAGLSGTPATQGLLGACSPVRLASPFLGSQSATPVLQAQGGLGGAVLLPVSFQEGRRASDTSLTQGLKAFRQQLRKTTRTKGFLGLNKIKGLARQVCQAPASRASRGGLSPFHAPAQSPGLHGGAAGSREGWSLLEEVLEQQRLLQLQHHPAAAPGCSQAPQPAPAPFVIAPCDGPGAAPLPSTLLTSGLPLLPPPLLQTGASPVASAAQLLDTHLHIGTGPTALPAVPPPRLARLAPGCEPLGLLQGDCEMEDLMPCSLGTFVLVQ
Chain of SIK2 (Q9H0K1 whole entry): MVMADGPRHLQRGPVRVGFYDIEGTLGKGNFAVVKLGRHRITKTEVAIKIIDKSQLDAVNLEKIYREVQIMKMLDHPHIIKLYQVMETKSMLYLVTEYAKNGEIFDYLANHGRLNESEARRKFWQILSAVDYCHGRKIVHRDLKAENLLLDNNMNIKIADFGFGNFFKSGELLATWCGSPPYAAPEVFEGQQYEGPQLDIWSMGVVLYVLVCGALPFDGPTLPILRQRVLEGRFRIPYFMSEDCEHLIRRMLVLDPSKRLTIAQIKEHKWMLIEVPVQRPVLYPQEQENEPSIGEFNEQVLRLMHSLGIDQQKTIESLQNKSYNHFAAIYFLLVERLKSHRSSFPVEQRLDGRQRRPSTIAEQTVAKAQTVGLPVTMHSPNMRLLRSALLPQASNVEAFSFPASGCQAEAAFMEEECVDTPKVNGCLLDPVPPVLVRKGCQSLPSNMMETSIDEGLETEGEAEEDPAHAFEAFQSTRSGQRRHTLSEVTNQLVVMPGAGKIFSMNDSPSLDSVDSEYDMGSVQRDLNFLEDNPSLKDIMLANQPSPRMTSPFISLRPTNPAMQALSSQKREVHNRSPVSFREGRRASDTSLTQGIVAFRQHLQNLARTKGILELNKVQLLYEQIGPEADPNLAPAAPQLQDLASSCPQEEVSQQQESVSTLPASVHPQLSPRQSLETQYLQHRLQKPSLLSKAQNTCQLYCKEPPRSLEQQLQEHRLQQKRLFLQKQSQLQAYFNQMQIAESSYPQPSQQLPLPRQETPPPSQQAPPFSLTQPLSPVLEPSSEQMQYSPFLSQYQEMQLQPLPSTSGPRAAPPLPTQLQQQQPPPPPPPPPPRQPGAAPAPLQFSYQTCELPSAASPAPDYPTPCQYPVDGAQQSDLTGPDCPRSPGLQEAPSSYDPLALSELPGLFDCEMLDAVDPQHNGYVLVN
Chain of SIK3 (Q9Y2K2 whole entry): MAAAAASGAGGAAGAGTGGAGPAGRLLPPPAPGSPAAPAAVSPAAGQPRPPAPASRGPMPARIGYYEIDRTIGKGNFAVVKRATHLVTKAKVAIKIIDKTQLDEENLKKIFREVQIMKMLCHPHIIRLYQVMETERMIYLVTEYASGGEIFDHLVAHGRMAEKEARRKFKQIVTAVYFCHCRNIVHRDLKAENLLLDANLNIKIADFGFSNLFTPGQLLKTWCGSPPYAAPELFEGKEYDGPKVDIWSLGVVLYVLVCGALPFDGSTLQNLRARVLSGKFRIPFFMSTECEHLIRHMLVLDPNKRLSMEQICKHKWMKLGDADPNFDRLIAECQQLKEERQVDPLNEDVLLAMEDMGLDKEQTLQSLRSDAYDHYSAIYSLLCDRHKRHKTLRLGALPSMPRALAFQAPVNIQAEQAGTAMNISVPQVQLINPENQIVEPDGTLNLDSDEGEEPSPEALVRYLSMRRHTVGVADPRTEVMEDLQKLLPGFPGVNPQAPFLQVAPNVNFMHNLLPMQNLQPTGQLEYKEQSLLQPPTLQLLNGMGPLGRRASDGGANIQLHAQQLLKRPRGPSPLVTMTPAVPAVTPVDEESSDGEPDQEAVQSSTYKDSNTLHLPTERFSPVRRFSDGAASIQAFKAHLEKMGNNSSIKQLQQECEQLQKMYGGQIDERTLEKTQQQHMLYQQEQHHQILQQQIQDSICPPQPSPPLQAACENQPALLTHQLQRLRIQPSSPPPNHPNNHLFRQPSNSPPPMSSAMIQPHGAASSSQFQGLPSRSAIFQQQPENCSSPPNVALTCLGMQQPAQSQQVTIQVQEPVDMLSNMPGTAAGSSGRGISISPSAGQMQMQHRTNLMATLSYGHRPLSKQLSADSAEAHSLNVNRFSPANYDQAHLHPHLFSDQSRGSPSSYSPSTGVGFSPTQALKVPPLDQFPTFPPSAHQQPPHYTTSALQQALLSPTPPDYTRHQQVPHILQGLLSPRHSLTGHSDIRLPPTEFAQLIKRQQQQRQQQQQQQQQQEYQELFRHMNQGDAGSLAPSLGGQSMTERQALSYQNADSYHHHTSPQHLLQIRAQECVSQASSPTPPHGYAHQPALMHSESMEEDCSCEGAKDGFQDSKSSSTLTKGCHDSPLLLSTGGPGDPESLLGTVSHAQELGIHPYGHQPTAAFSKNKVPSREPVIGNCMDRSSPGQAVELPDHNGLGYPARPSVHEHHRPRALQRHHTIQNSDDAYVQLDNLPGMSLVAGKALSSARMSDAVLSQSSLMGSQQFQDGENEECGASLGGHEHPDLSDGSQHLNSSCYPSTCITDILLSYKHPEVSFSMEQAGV

Turning to `Cc1ccc(Nc2ccc3c(c2)ncn3-c2ccc(C(C)O)c(-c3cc(C(F)(F)F)ncc3C)n2)nn1` (stereo not drawn) [Example 332, 1-[6-[5-[(6-methylpyridazin-3-yl)amino]benzimidazol-1-yl]-2-[5-methyl-2-(trifluoromethyl)-4-pyridyl]-3-pyridyl]ethanol], the pIC50 is 6.50 on SIK1, 8.28 on SIK2 and 8.55 on SIK3.

Turning to `Cc1cc(C#N)nn1-c1nc(-n2cnc3cc(Nc4cccn(C)c4=O)ccc32)ccc1C(C)O` (stereo not drawn) [Example 333, 1-[3-(1-hydroxyethyl)-6-[5-[(2-keto-1-methyl-3-pyridyl)amino]benzimidazol-1-yl]-2-pyridyl]-5-methyl-pyrazole-3-carbonitrile], the pIC50 on SIK1 was 7.39; on SIK2 it was 7.60; on SIK3, 7.71.

Regarding `COc1nn(C)cc1-c1ccc2c(c1)ncn2-c1ccc(C(C)O)c(-n2nc(C#N)cc2C)n1` (stereo not drawn) [Example 334, 1-[3-(1-hydroxyethyl)-6-[5-(3-methoxy-1-methyl-pyrazol-4-yl)benzimidazol-1-yl]-2-pyridyl]-5-methyl-pyrazole-3-carbonitrile], the negative logarithm of the IC50 (pIC50) on SIK1 was 8.52; on SIK2, 8.80; at SIK3 it was 8.47.

Turning to `Cc1ccc(Nc2ccc3c(c2)ncn3-c2ccc(C(C)O)c(-c3cc(C(F)F)ncc3C)n2)nn1` (stereo not drawn) [Example 335, 1-[2-[2-(difluoromethyl)-5-methyl-4-pyridyl]-6-[5-[(6-methlpyridazin-3-yl)amino]benzimidazol-1-yl]-3-pyridyl]ethanol], the pIC50 is 8.00 on SIK1, 9.00 on SIK2 and 9.52 at SIK3.

Consider `Cc1cc(C#N)nn1-c1nc(-n2cnc3ccc(-c4ccn(C)c(=O)n4)cc32)ccc1C(C)O` (stereo not drawn) [Example 336, 1-[3-(1-hydroxyethyl)-6-[6-(1-methyl-2-oxo-pyrimidin-4-yl)benzimidazol-1-yl]-2-pyridyl]-5-methyl-pyrazole-3-carbonitrile], for which the pIC50 on SIK1 was 7.54; at SIK2 it was 7.54; on SIK3 it was 6.86.

As for `Cc1cc(C(F)F)nn1-c1nc(-n2cnc3cc(Nc4ccc(C5(C)OCCO5)nn4)c(F)cc32)ccc1C(C)O` (stereo not drawn) [Example 337, 1-[2-[3-(difluoromethyl)-5-methyl-pyrazol-1-yl]-6-[6-fluoro-5-[[6-(2-methyl-1,3-dioxolan-2-yl)pyridazin-3-yl]amino]benzimidazol-1-yl]-3-pyridyl]ethanol], the pIC50 was 5.92 at SIK1, 8.08 on SIK2 and 8.32 at SIK3.

For `Cc1cc(C#N)nn1-c1nc(-n2cnc3cc(-c4ccn(C)c(=O)n4)ccc32)ccc1C(C)O` (stereo not drawn) [Example 338, 1-[3-(1-hydroxyethyl)-6-[5-(1-methyl-2-oxo-pyrimidin-4-yl)benzimidazol-1-yl]-2-pyridyl]-5-methyl-pyrazole-3-carbonitrile], the values for the pIC50 at SIK1, at SIK2 and on SIK3 were 7.06, 7.57 and 7.56, respectively.

In the case of `Cc1ccc(-c2ccc3ncn(-c4ccc(C(C)O)c(-n5nc(C#N)cc5C)n4)c3c2)nn1` (stereo not drawn) [Example 339, 1-[3-(1-hydroxyethyl)-6-[6-(6-methylpyridazin-3-yl)benzimidazol-1-yl]-2-pyridyl]-5-methyl-pyrazole-3-carbonitrile], the figures for the pIC50 on SIK1, at SIK2 and on SIK3 were 7.49, 7.53 and 6.52, respectively.

In the case of `Cc1ccc(-c2ccc3c(c2)ncn3-c2ccc(C(C)O)c(-n3nc(C#N)cc3C)n2)nn1` (stereo not drawn) [Example 340, 1-[3-(1-hydroxyethyl)-6-[5-(6-methylpyridazin-3-yl)benzimidazol-1-yl]-2-pyridyl]-5-methyl-pyrazole-3-carbonitrile], the pIC50 is 7.38 at SIK1, 7.69 on SIK2 and 7.75 on SIK3.

Turning to `Cc1cc(C#N)nn1-c1nc(-n2cnc3ccc(N4CCC[C@H]4C#N)cc32)ccc1C(C)O` (stereo partly drawn) [Example 341, 1-[6-[6-[(2S)-2-cyanopyrrolidin-1-yl]benzimidazol-1-yl]-3-(1-hydroxyethyl)-2-pyridyl]-5-methyl-pyrazole-3-carbonitrile], the pIC50 on SIK1 was 7.85; on SIK2, 7.82; on SIK3 it was 6.91.

For `Cc1cc(C#N)nn1-c1nc(-n2cnc3cc(N4CCC[C@H]4C#N)ccc32)ccc1C(C)O` (stereo partly drawn) [Example 342, 1-[6-[5-[(2S)-2-cyanopyrrolidin-1-yl]benzimidazol-1-yl]-3-(1-hydroxyethyl)-2-pyridyl]-5-methyl-pyrazole-3-carbonitrile], the values for the pIC50 at SIK1, on SIK2 and at SIK3 were 7.66, 8.02 and 7.79, respectively.

As to `Cc1cc(C#N)nn1-c1nc(-n2cnc3ccc(N4CC[C@H]5CNC(=O)[C@H]54)cc32)ccc1C(C)O` (stereo partly drawn) [Example 343, 1-[6-[6-[(3aS,6aS)-6-oxo-2,3,3a,4,5,6a-hexahydropyrrolo[2,3-c]pyrrol-1-yl]benzimidazol-1-yl]-3-(1-hydroxyethyl)-2-pyridyl]-5-methyl-pyrazole-3-carbonitrile], the pIC50 at SIK1 was 8.30; at SIK2, 7.66; on SIK3, 7.20.

As to `Cc1ccc(Nc2ccc3c(c2)ncn3-c2ccc(C(C)O)c(-n3nc(C(F)F)nc3C)n2)nn1` (stereo not drawn) [Example 344, 1-[2-[3-(difluoromethyl)-5-methyl-1,2,4-triazol-1-yl]-6-[5-[(6-methylpyridazin-3-yl)amino]benzimidazol-1-yl]-3-pyridyl]ethanol], the pIC50 was 5.80 on SIK1, 7.69 at SIK2 and 8.49 on SIK3.

With `Cc1cc(C(=O)N(C)C)c(Nc2cc3ncn(-c4ccc([C@H](C)O)c(-n5nc(C(F)F)cc5C)n4)c3cc2F)nn1` [Example 345, 3-[[1-[6-[3-(difluoromethyl)-5-methyl-pyrazol-1-yl]-5-[(1~{S})-1-hydroxyethyl]-2-pyridyl]-6-fluoro-benzimidazol-5-yl]amino]-~{N},~{N},6-trimethyl-pyridazine-4-carboxamide], the pIC50 on SIK1 was 4.76; at SIK2 it was 7.31; on SIK3, 7.22.

For `Cc1ccc(Nc2cc3ncn(-c4ccc(C(C)O)c(-c5cc(OC(F)F)ncc5C)n4)c3cc2F)nn1` (stereo not drawn) [Example 346, 1-[2-[2-(difluoromethoxy)-5-methyl-4-pyridyl]-6-[6-fluoro-5-[(6-methylpyridazin-3-yl)amino]benzimidazol-1-yl]-3-pyridyl]ethanol], the figures for the pIC50 at SIK1, on SIK2 and on SIK3 were 6.88, 9.00 and 8.85, respectively.

Take `Cc1ccc(Nc2cc3ncn(-c4ccc(CO)c(-n5nc(C#N)cc5C)n4)c3cc2F)nn1` [Example 347, 1-[6-[6-fluoro-5-[(6-methylpyridazin-3-yl)amino]benzimidazol-1-yl]-3-(hydroxymethyl)-2-pyridyl]-5-methyl-pyrazole-3-carbonitrile]: the pIC50 at SIK1 is 5.95; at SIK2, 8.20; on SIK3, 8.41.

On to `Cc1cc(C(=O)N(C)C)c(Nc2ccc3c(c2)ncn3-c2ccc(CO)c(-n3nc(C(F)F)cc3C(F)F)n2)nn1` [Example 348, 3-[[1-[6-[3,5-bis(difluoromethyl)pyrazol-1-yl]-5-(hydroxymethyl)-2-pyridyl]benzimidazol-5-yl]amino]-N,N,6-trimethyl-pyridazine-4-carboxamide], for which the pIC50 on SIK1 is 4.84; at SIK2, 7.49; on SIK3 it was 7.43.

`Cc1ccc(Nc2ccc3c(c2)ncn3-c2ccc(C(C)O)c(-c3nn(CC(F)(F)F)cc3C)n2)nn1` (stereo not drawn) [Example 349, 1-[6-[5-[(6-methylpyridazin-3-yl)amino]benzimidazol-1-yl]-2-[4-methyl-1-(2,2,2-trifluoroethyl)pyrazol-3-yl]-3-pyridyl]ethanol]: the values for the pIC50 at SIK1, at SIK2 and at SIK3 were 6.36, 8.28 and 8.18, respectively.

For `Cc1nn(CC(F)(F)F)cc1-c1nc(-n2cnc3cc(Oc4ccc(CN5CCOCC5)nn4)ccc32)ccc1C(C)O` (stereo not drawn) [Example 350, 1-[2-[3-methyl-1-(2,2,2-trifluoroethyl)pyrazol-4-yl]-6-[5-[6-(morpholinomethyl)pyridazin-3-yl]oxybenzimidazol-1-yl]-3-pyridyl]ethanol], the pIC50 on SIK1 was 5.42; at SIK2, 7.17; at SIK3 it was 7.22.

For the molecule `Cc1ccc(Oc2ccc3c(c2)ncn3-c2ccc(C(C)O)c(-c3cn(CC(F)(F)F)nc3C)n2)nn1` (stereo not drawn) [Example 351, 1-[6-[5-(6-methylpyridazin-3-yl)oxybenzimidazol-1-yl]-2-[3-methyl-1-(2,2,2-trifluoroethyl)pyrazol-4-yl]-3-pyridyl]ethanol], the pIC50 at SIK1 is 5.47; on SIK2, 7.45; at SIK3 it was 8.03.

`Cc1nn(CC(F)(F)F)cc1-c1nc(-n2cnc3cc(Oc4ccc(CN5CCN(C)CC5)nn4)ccc32)ccc1C(C)O` (stereo not drawn) [Example 352, 1-[6-[5-[6-[(4-methylpiperazin-1-yl)methyl]pyridazin-3-yl]oxybenzimidazol-1-yl]-2-[3-methyl-1-(2,2,2-trifluoroethyl)pyrazol-4-yl]-3-pyridyl]ethanol]: the pIC50 is 5.63 on SIK1, 7.78 on SIK2 and 7.62 on SIK3.

On to `Cc1ccc(Nc2cc3c(cc2OC2COC2)ncn3-c2ccc(C(C)O)c(-n3nc(OC(F)F)cc3C)n2)nn1` (stereo not drawn) [Example 353, 1-[2-[3-(difluoromethoxy)-5-methyl-pyrazol-1-yl]-6-[6-[(6-methylpyridazin-3-yl)amino]-5-(oxetan-3-yloxy)benzimidazol-1-yl]-3-pyridyl]ethanol], for which the values for the pIC50 on SIK1, on SIK2 and at SIK3 were 6.64, 7.22 and 6.66, respectively.

Values taken from patent US20240383875A1, “Benzimidazole Pyridine Derivatives” (Hoffmann-La Roche Inc., priority 2022, published 2024).
